Patent US7112590B2, “Thrombin inhibitors” (LEK Pharmaceuticals d.d., priority 2000, dated 2006)

Key:
trypsin = molecular target: T1, trypsin (UniProt P00760); assay: Determination of trypsin Ki (chromogenic substrate S-2222); assay type: biochemical; conditions: substrate S-2222, pH 7.5, 25° C.
T1 construct: Trypsin (6000 E/mg prot; Sigma): dissolved in distilled water to give a stock solution of 300 E/mL
T1 sequence (P00760 1-246): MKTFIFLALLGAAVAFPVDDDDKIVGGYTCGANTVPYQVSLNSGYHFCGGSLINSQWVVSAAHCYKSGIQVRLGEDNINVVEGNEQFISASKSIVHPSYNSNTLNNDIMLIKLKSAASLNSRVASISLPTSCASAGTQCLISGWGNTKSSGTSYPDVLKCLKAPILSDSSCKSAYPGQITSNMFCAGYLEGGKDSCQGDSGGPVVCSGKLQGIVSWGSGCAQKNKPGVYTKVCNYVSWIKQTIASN
Experimental: The enzyme inhibitory effect of the compounds can be identified by determination of inhibition constant Ki. It denotes the degree of dissociation of the enzyme-inhibitor complex. Low dissociation constant means high potency of inhibitor. Ki can be determined during reaction of the enzyme with a specific chromogenic substrate which under hydrolysis by the enzyme develops color. Reaction in time is recorded by spectrophotometry and Ki is calculated from kinetic parameters (Vmax, Km, reaction rate).
2. Determination of Trypsin Ki
The ability of a compound to act as an inhibitor of trypsin catalytic activity was assessed by determination of Ki.
Buffer: HBSA, pH 7.5 (10 mM Hepes, 150 mM NaCl, 0.1% w/v bovine serum albumin)
Substrate (S-2222: N-benzoyl-Ile-Glu-Gly-Arg-pNA HCl, 25 mg; Chromogenix): dissolved in distilled water to 2 mM concentration. (Km is 21 μM)
Trypsin (6000 E/mg prot.; Sigma): dissolved in distilled water to give a stock solution of 300 E/mL.
Inhibitors: were dissolved in DMSO (10 mM stock solution) and diluted with distilled water to working solution (the highest final concentration of DMSO was 10%).
50 μL of buffer, 50 μL of test compound in water (final concentrations from 50 to 300 μM) and 50 μL of trypsin (3 mE/mL f.c.) were incubated for 15 minutes at room temperature. The reaction was started with 50 μL of S-2222 (50 μM or 100 μM f.c.) and the absorbance of each sample at 405 nm (at 25° C.) was measured in triplicates every 10 seconds for a period of 15 minutes using a microtiter plate reader (Tecan Sunrise).
Trypsin activity was determined from the change in absorbance in the linear part of velocity graph. Ki was calculated according to Cheng and Prussof (Biochem Pharmacol, 1973) where Ki is, IC50/(1+S/Km). The Km for the substrate was determined under test conditions with at least 6 substrate concentrations varying around Km and calculated with the non-linear regression program Curve expert.

Structure (SMILES)	melting point [°C]	Ki (trypsin) [µM]
CC(C)(C)OC(=O)N[C@H](C(=O)N1CCC[C@H]1C(=O)NC1CCc2n[nH]cc2C1)C(c1ccccc1)c1ccccc1 (stereo partly drawn) [Example 15, tert-Butyl (1S)-1-benzhydryl-2-oxo-2-{(2S)-2-[(4,5,6,7-tetrahydro-2H-indazol-5-ylamino)carbonyl]pyrrolidinyl}ethylcarbamate]	127 to 130	–
Cl.Cl.Nc1nc2c(s1)CC(NC(=O)[C@@H]1CCCN1C(=O)[C@@H](CC1CCCCC1)NCC(=O)O)CC2 (stereo partly drawn)	180 to 182	–
CC(C)(C)OC(=O)N[C@H](Cc1ccc(Cl)c(Cl)c1)C(=O)N1CCC[C@H]1C(=O)NC1CCc2nc(N)ncc2C1 (stereo partly drawn) [Example 14, tert-Butyl (1R)-2-((2S)-2-{[(2-amino-5,6,7,8-tetrahydro-6-quinazolinyl)amino]carbonyl}pyrrolidinyl)-1-(3,4-dichlorobenzyl)-2-oxoethylcarbamate]	114 to 117	–
Cl.Cl.N[C@H](C(=O)N1CCC[C@H]1C(=O)NC1CCc2n[nH]cc2C1)C(c1ccccc1)c1ccccc1 (stereo partly drawn)	195 to 198	–
CC(C)(C)OC(=O)N[C@H](Cc1ccccc1)C(=O)N1CCC[C@H]1C(=O)NC1CCc2nc(N)sc2C1 (stereo partly drawn) [Example 25, tert-Butyl (1R)-2-((2S)-2-{[(2-amino-4,5,6,7-tetrahydro-1,3-benzothiazol-6-yl)amino]carbonyl}pyrrolidinyl)-1-benzyl-2oxoethylcarbamate]	120 to 123	–
NC(C(=O)N1CCCC1C(=O)NCC1CCc2n[nH]cc2C1)C(c1ccccc1)c1ccccc1 (stereo not drawn)	–	217
Cl.Cl.N[C@H](Cc1ccccc1)C(=O)N1CCC[C@H]1C(=O)NC1CCc2n[nH]cc2C1 (stereo partly drawn)	203 to 206	–

Next, values leading:

melting point [°C]	Ki (trypsin) [µM]	Structure (SMILES)
125 to 128	–	Nc1nc2c(s1)CC(NC(=O)[C@@H]1CCCN1C(=O)CNC(c1ccccc1)(c1ccccc1)c1ccccc1)CC2 (stereo partly drawn) [Example 33, (2S)-N-(2-Amino-4,5,6,7-tetrahydro-1,3-benzothiazol-6-yl)-1-[2-(tritylamino)acetyl]-2-pyrrolidinecarboxamide]
127 to 130	–	CC(C)(C)OC(=O)N[C@@H](C(=O)N1CCC[C@H]1C(=O)NCC1CCc2nc(N)ncc2C1)C(c1ccccc1)c1ccccc1 (stereo partly drawn) [Example 67, tert-Butyl (1R)-2-[(2S)-2-({[(2-amino-5,6,7,8-tetrahydro-6-quinazolinyl)methyl]amino}carbonyl)pyrrolidinyl]-1-benzhydryl-2-oxoethylcarbamate]
119 to 122	–	Nc1nc2c(s1)CC(NC(=O)CNC(=O)[C@@H](Cc1ccccc1)NS(=O)(=O)Cc1ccccc1)CC2 (stereo partly drawn) [Example 31, (2R)-N-{2-[(2-Amino-4,5,6,7-tetrahydro-1,3-benzothiazol-6-yl)amino]-2-oxoethyl}-2-[(benzylsulfonyl)amino]3-phenylpropanamide]
118 to 121	–	Nc1ncc2c(n1)CCC(CNC(=O)[C@@H]1CCCN1C(=O)[C@@H](CC1CCCCC1)NS(=O)(=O)Cc1ccccc1)C2 (stereo partly drawn) [Example 57, (2S)-N-[(2-Amino-5,6,7,8-tetrahydro-6-quinazolinyl)methyl]-1-{(2R)-2-[(benzylsulfonyl)amino]-3-cyclohexylpropanoyl}-2-pyrrolidinecarboxamide]
127 to 130	–	CC(C)(C)OC(=O)N[C@H](C(=O)N1CCC[C@H]1C(=O)NC1CCc2nc(N)sc2C1)C(c1ccccc1)c1ccccc1 (stereo partly drawn) [Example 35, tert-Butyl (1S)-2-((2S)-2-{[(2-amino-4,5,6,7-tetrahydro-1,3-benzothiazol-6-yl)amino]carbonyl}pyrrolidinyl)-1-benzhydryl-2-oxoethylcarbamate]
100 to 103	–	O=C(NCC1CCc2n[nH]cc2C1)[C@@H]1CCCN1C(=O)[C@@H](CC1CCCCC1)NS(=O)(=O)Cc1ccccc1 (stereo partly drawn) [Example 58, (2S)-1-{(2R)-2-[(Benzylsulfonyl)amino]-3-cyclohexylpropanoyl}-N-(4,5,6,7-tetrahydro-2H-indazol-5-ylmethyl)-2-pyrrolidinecarboxamide]
100 to 103	–	CC(C)(C)OC(=O)N[C@H](Cc1ccc(Cl)c(Cl)c1)C(=O)N1CCC[C@H]1C(=O)NCC1CCc2n[nH]cc2C1 (stereo partly drawn) [Example 59, tert-Butyl (1R)-1-(3,4-dichlorobenzyl)-2-oxo-2-((2S)-2-{[(4,5,6,7-tetrahydro-2H-indazol-5-ylmethyl)amino]carbonyl}pyrrolidinyl)ethylcarbamate]
128 to 131	–	Nc1nc2c(s1)CC(NC(=O)[C@@H]1CCCN1C(=O)[C@@H](Cc1ccccc1)NS(=O)(=O)c1ccc3ccccc3c1)CC2 (stereo partly drawn) [Example 30, (2S)-N-(2-Amino-4,5,6,7-tetrahydro-1,3-benzothiazol-6-yl)-1-{(2R)-2-[(2-naphthylsulfonyl)amino]-3-phenylpropanoyl}-2-pyrrolidinecarboxamide]
